Patent US11001872B2, “Designing customized protein-specific buffer system” (priority 2015, dated 2021)

What was measured:
[1] = tested on: protein sample; experiment: Protein quality control screen: melting point temperature vs pH and NaCl concentration; assay type: physicochemical
Excerpt: In one embodiment, the present invention contemplates a method comprising a protein quality control screen. Although it is not necessary to understand the mechanism of an invention, it is believed that a quality control screen may be used to analyze: i) comparison of protein state prior to storage and post storage; ii) protein synthesis/purification lot-to-lot comparison; and iii) protein synthesis/purification batch testing. In one embodiment, the protein quality control screen measures protein melting point temperature while varying both pH concentration and ionic strength (e.g., for example, using a sodium chloride dose response curve). See, Table 1.
In one embodiment, a three dimensional map of the protein melting point temperatures is created by plotting the melting point determinations relative to pH and ionic strength. See. FIG. 15.

[2] = tested on: protein sample; experiment: Protein stability screen: protein melting point temperature in MES/BTP buffer mixture; assay type: physicochemical; details: Hoefmeister Series screen; higher Tm
Excerpt: In one embodiment, the present invention contemplates a method comprising a physiologic buffer mixture having a temperature-stable pKa to identify test compounds that increase stability of a sample protein by performing a protein melting point temperature screen. […] Although it is not necessary to understand the mechanism of an invention it is believed that a protein stability screen acts to define the bulk properties of a solution system (i.e. impact of pH, ionic strength, buffer etc.) and not just one specific component like most of the other screening conditions. The buffer system also acts as an internal control that simultaneously compares new and old conditions under identical conditions. Although commonly used previously, a urea stability test provides validation and verification of all testing parameters by comparative analysis with historical literature. DMSO screening allows for the nomination of conditions where protein compounds are usually insoluble (e.g., for example, drug binding studies) to identify the proper use of DMSO to solubilize these compounds without effecting the performance of the intended assay.
See, FIG. 1. […] See, FIG. 3. […] See, FIG. 4. […] See, FIG. 5. […] See, FIG. 6.
A metal ion screen was performed that compared the relative effects of five (5) different metal chloride ions, each at two different concentrations. See, FIG. 7. […] See, FIG. 8.
In one embodiment, the kit instructions comprise the following steps: • i) pre-chill the RT-PCR plate at 4° C. for 15-30 minutes prior to the addition of reagents and/or protein sample to each of the wells. • ii) The dye vial and kit plates should be stored at −20° C. and away from light until the time of use. • iii) Add 5 μl of dye to 500 μl of protein sample. The dye to protein ratio can be modified to any particular protein. For example, smaller proteins or proteins with a small hydrophobic core may require an increased dye concentration. • iv) Transfer 5 μl of each solution from the well plate to a corresponding well of the RT-PCR plate. • v) Add 5 μl of the protein/dye mixture to each well of the RT-PCR plate (>0.5 mg/ml). • vi) Mix the solutions by pipetting up and down (˜5 times). • a) gently placing all solutions at the bottom of the avoids subsequent plate centrifugation. • vii) Seal the RT-PCR plate. • viii) Immediately load the TR-PCR plate into the instrument and begin the programmed heating schedule (approximate timeframe=62 minutes), for example: • a) Heat to 20 C • b) Ramp to 90 C in 0.5 C increments. • c) Ramp to 4 C with a two minute schedule. • ix) Upload stored data file to a designated website (e.g., for example, caymanchem.com/deltatm) and follow the instructions.

[Cl-].[Na+] [sodium chloride]
77 °C: protein melting point temperature ([1]; pH 5, NaCl Concentration 1.25) | protein melting point temperature ([1]; pH 5, NaCl Concentration 1.5) | protein melting point temperature ([1]; pH 5, NaCl Concentration 2) | protein melting point temperature ([1]; pH 5.5, NaCl Concentration 1.25) | protein melting point temperature ([1]; pH 5.5, NaCl Concentration 1.5) | protein melting point temperature ([1]; pH 6, NaCl Concentration 1) | protein melting point temperature ([1]; pH 6, NaCl Concentration 1.25) | protein melting point temperature ([1]; pH 6, NaCl Concentration 1.5) | protein melting point temperature ([1]; pH 6.5, NaCl Concentration 0.75) | protein melting point temperature ([1]; pH 7, NaCl Concentration 0.5) | protein melting point temperature ([1]; pH 7, NaCl Concentration 1.75) | protein melting point temperature ([1]; pH 7, NaCl Concentration 2) | protein melting point temperature ([1]; pH 8.5, NaCl Concentration 0.75)
76.5 °C: protein melting point temperature ([1]; pH 5, NaCl Concentration 1) | protein melting point temperature ([1]; pH 5, NaCl Concentration 1.75) | protein melting point temperature ([1]; pH 5.5, NaCl Concentration 1) | protein melting point temperature ([1]; pH 6, NaCl Concentration 0.75) | protein melting point temperature ([1]; pH 6.5, NaCl Concentration 0.25) | protein melting point temperature ([1]; pH 6.5, NaCl Concentration 0.5) | protein melting point temperature ([1]; pH 7, NaCl Concentration 0.25) | protein melting point temperature ([1]; pH 7.5, NaCl Concentration 0.125) | protein melting point temperature ([1]; pH 7.5, NaCl Concentration 1.25) | protein melting point temperature ([1]; pH 8, NaCl Concentration 0.5) | protein melting point temperature ([1]; pH 8, NaCl Concentration 1) | protein melting point temperature ([1]; pH 8, NaCl Concentration 1.25)
74.5 °C: protein melting point temperature ([1]; pH 5, NaCl Concentration 0.5) | protein melting point temperature ([1]; pH 8, NaCl Concentration 2) | protein melting point temperature ([1]; pH 8.5, NaCl Concentration 2) | protein melting point temperature ([1]; pH 9, NaCl Concentration 1.75)
73 °C: protein melting point temperature ([1]; pH 5, NaCl Concentration 0.125)
improved the stability of the protein: effect on protein stability (Tm) [2]
76 °C: protein melting point temperature ([1]; pH 5, NaCl Concentration 0.75) | protein melting point temperature ([1]; pH 5.5, NaCl Concentration 0.75) | protein melting point temperature ([1]; pH 6, NaCl Concentration 0.25) | protein melting point temperature ([1]; pH 6, NaCl Concentration 0.5) | protein melting point temperature ([1]; pH 6.5, NaCl Concentration 0.125) | protein melting point temperature ([1]; pH 7, NaCl Concentration 0.125) | protein melting point temperature ([1]; pH 7.5, NaCl Concentration 1.5) | protein melting point temperature ([1]; pH 7.5, NaCl Concentration 1.75) | protein melting point temperature ([1]; pH 8, NaCl Concentration 1.5) | protein melting point temperature ([1]; pH 8.5, NaCl Concentration 0.5) | protein melting point temperature ([1]; pH 8.5, NaCl Concentration 1)
75.5 °C: protein melting point temperature ([1]; pH 8, NaCl Concentration 0.125) | protein melting point temperature ([1]; pH 8.5, NaCl Concentration 0.25) | protein melting point temperature ([1]; pH 9, NaCl Concentration 0.5)
75 °C: protein melting point temperature ([1]; pH 5.5, NaCl Concentration 0.125) | protein melting point temperature ([1]; pH 5.5, NaCl Concentration 0.25) | protein melting point temperature ([1]; pH 5.5, NaCl Concentration 0.5) | protein melting point temperature ([1]; pH 6, NaCl Concentration 0.125) | protein melting point temperature ([1]; pH 7.5, NaCl Concentration 2) | protein melting point temperature ([1]; pH 8, NaCl Concentration 1.75) | protein melting point temperature ([1]; pH 8.5, NaCl Concentration 0.125) | protein melting point temperature ([1]; pH 8.5, NaCl Concentration 1.25) | protein melting point temperature ([1]; pH 8.5, NaCl Concentration 1.5) | protein melting point temperature ([1]; pH 8.5, NaCl Concentration 1.75) | protein melting point temperature ([1]; pH 9, NaCl Concentration 0.125) | protein melting point temperature ([1]; pH 9, NaCl Concentration 0.25) | protein melting point temperature ([1]; pH 9, NaCl Concentration 0.75) | protein melting point temperature ([1]; pH 9, NaCl Concentration 1) | protein melting point temperature ([1]; pH 9, NaCl Concentration 1.25) | protein melting point temperature ([1]; pH 9, NaCl Concentration 1.5)
74 °C: protein melting point temperature ([1]; pH 9, NaCl Concentration 2)
73.5 °C: protein melting point temperature ([1]; pH 5, NaCl Concentration 0.25)
77.5 °C: protein melting point temperature ([1]; pH 5.5, NaCl Concentration 1.75) | protein melting point temperature ([1]; pH 5.5, NaCl Concentration 2) | protein melting point temperature ([1]; pH 6, NaCl Concentration 2) | protein melting point temperature ([1]; pH 6.5, NaCl Concentration 1) | protein melting point temperature ([1]; pH 6.5, NaCl Concentration 1.25) | protein melting point temperature ([1]; pH 6.5, NaCl Concentration 1.5) | protein melting point temperature ([1]; pH 7, NaCl Concentration 0.75) | protein melting point temperature ([1]; pH 7, NaCl Concentration 1) | protein melting point temperature ([1]; pH 7, NaCl Concentration 1.25) | protein melting point temperature ([1]; pH 7, NaCl Concentration 1.5) | protein melting point temperature ([1]; pH 7.5, NaCl Concentration 0.25) | protein melting point temperature ([1]; pH 7.5, NaCl Concentration 0.5) | protein melting point temperature ([1]; pH 7.5, NaCl Concentration 1) | protein melting point temperature ([1]; pH 8, NaCl Concentration 0.25) | protein melting point temperature ([1]; pH 8, NaCl Concentration 0.75)
78 °C: protein melting point temperature ([1]; pH 6, NaCl Concentration 1.75) | protein melting point temperature ([1]; pH 6.5, NaCl Concentration 1.75) | protein melting point temperature ([1]; pH 6.5, NaCl Concentration 2) | protein melting point temperature ([1]; pH 7.5, NaCl Concentration 0.75)
